# Experimental data taken from patent US7030126B2, “Use of polyamine analogs for amyotrophic lateral sclerosis” (ALS Therapy Development Foundation, Inc., priority 2001, dated 2006).
# Like-named read-outs stand apart in the source and are kept apart here.
# Experiments:
# [1] = system: SOD1 G93A mice
# Excerpt: (vi) Neurological Scoring: Neurological score of each limb was monitored and recorded according to a defined 4-point scale defined below: […]
# [2] = system: SOD1 G93A mice; test: Discontinuous dosing of DFMO in SOD-1 (G93A) mouse model of ALS: survival and neurological score; format: in vivo
# Excerpt: (§1) Survival in the mouse is copy dependent.
# (§2) Controls animals were given water as vehicle.
# Results are shown in FIGS. 2 and 3 and described below.
# [3] = system: SOD1 G93A mice; test: Continuous dosing of DFMO in SOD-1 (G93A) mouse model of ALS: survival and neurological score; format: in vivo
# Experimental: as §1, §2
# During this study, DFMO was delivered chronically at a dose of 3200 mg/Kg/day in drinking water […] without any drug holiday until death according to the methods described in Example 1. Results are shown in FIGS. 4–9 and described below.
# [4] = system: SOD1 G93A mice; test: Ongoing IP injection study of DFMO in SOD1 G93A mice; format: in vivo, mouse; conditions: 3200 mg/kg
# Excerpt: Studies are currently underway to analyze polyamines in male vs. female mSOD1 mice and wild-type mice. While positive effects are seen in male mice, the effect is less reliable at current doses. Differences in polyamine synthesis and regulation exist between the sexes and may account for the different observed effects. […] Higher plasma concentration of DFMO can be achieved by systemic delivery as opposed to oral delivery.
# [5] = system: cellular concentrations of putrescine, spermidine and spermine; conditions: cited from earlier work
# [6] = system: SOD1 G93A mice; test: DENSPM in SOD-1 (G93A) mouse model of ALS: survival and neurological score; format: in vivo; conditions: female mice
# Excerpt: as §1
# Results are shown in FIGS. 12 and 13 and described below.
# [7] = system: patients with advanced non-small cell lung cancer; conditions: Phase I; cited from earlier work
# [8] = 24 mg/kg/day IP twice daily till death, FIG. 12
structure (smiles),measurement,setting,value
NC(=O)NO [hydroxyurea],onset of ALS disease,"[1]; 250 mg/Kg/day IP once daily, day 50 to day 110",delays the onset of ALS disease
same,life span / survival,"[1]; female mice, 250 mg/Kg/day IP once daily, day 50 to day 110, FIG. 10",extended the life span
same,"neurological score analysis, effect","[1]; female mice, 250 mg/Kg/day IP, FIG. 11",protective
"NCCCC(N)(C(=O)O)C(F)F (racemic) [DFMO, 2-(Difuoromethyl)-DL-ornithine]",onset of disease,"[2]; 3200 mg/Kg/day in drinking water, 21 days on, 7 day drug holiday",delays the onset of disease
same,survival,"[2]; 3200 mg/Kg/day in drinking water, 21 days on, 7 day drug holiday, FIG. 2",extends the survival
same,"neurological score analysis, effect","[2]; combined male and female results, discontinuous delivery",No effect
same,"neurological score analysis, effect","[2]; female mice, during drug delivery period, discontinuous delivery, FIG. 3",protective
same,deaths of animals in the treatment group that occurred during the drug holiday or a few days immediately succeeding the holiday,"[2]; female mice, 3200 mg/Kg/day in drinking water, 21 days on, 7 day drug holiday, FIG. 2",70%
same,total female effect,"[2]; female mice, discontinuous delivery, FIG. 3",3.5%
same,"neurological score analysis, effect","[2]; male mice, discontinuous delivery",No effect
same,onset of disease,"[3]; 3200 mg/Kg/day in drinking water, no drug holiday",delays the onset of disease
same,life span / survival,"[3]; 3200 mg/Kg/day in drinking water, no drug holiday, FIGS. 4, 6 and 8",extended the life span
same,"neurological score analysis, effect","[3]; combined male and female, continuous delivery, FIG. 5",protective
same,effect,"[3]; female mice, continuous delivery",11.48%
same,"neurological score analysis, effect","[3]; female mice, continuous delivery, FIG. 9",protective
same,total combined effect,"[3]; male and female combined, continuous delivery, Cox proportional hazard, litter effect as frailty term, p=0.02",9.69%
same,effect,"[3]; male mice, continuous delivery",8.21%
same,"neurological score analysis, effect","[3]; male mice, continuous delivery, FIG. 7",protective
same,trend in male mice,[4],positive male trend
"CCNCCCNCCCNCCCNCC [DENSPM, N(1),N(11)-diethylnorspermine]","cellular concentrations of putrescine, spermidine and spermine",[5],reduce
same,onset of disease,[6]; [8],delays the onset of disease
same,survival,[6]; [8],extends the survival
same,"neurological score analysis, effect","[6]; 24 mg/kg/day IP twice daily, FIG. 13",protective
same,toxicity in patients,[7],minimal toxicity
